According to patent publication US11382328B2, “Rapid drug discovery methods for pathogen inactivation” (priority 2019, dated 2022):

Tested on: E. coli strain W3110
Assay: Synergy assays: Biolog chemical sensitivity panels with Group IB metal, coefficient of drug interaction (CDI) from relative growth
Format: cell-based
Conditions: for CDI (coefficient of drug interaction), copper mixed with biocide: Copper (mM) section
[1] = 1st of 3 copper concentrations (value not shown), 1st of four biocide concentrations
[2] = 1st of 3 copper concentrations (value not shown), 3rd of four biocide concentrations
[3] = 2nd of 3 copper concentrations (value not shown), 1st of four biocide concentrations
[4] = 2nd of 3 copper concentrations (value not shown), 2nd of four biocide concentrations
[5] = 2nd of 3 copper concentrations (value not shown), 3rd of four biocide concentrations
[6] = 2nd of 3 copper concentrations (value not shown), 4th of four biocide concentrations
[7] = 3rd of 3 copper concentrations (value not shown), 1st of four biocide concentrations
[8] = 3rd of 3 copper concentrations (value not shown), 2nd of four biocide concentrations
[9] = 3rd of 3 copper concentrations (value not shown), 3rd of four biocide concentrations
[10] = 3rd of 3 copper concentrations (value not shown), 4th of four biocide concentrations
[11] = Silver 0.5 μM, 1st of four biocide concentrations, E. coli
[12] = Silver 0.5 μM, 2nd of four biocide concentrations, E. coli
[13] = Silver 0.5 μM, 3rd of four biocide concentrations, E. coli
[14] = Silver 0.5 μM, 4th of four biocide concentrations, E. coli
[15] = Silver 1.0 μM, 1st of four biocide concentrations, E. coli
[16] = Silver 1.0 μM, 2nd of four biocide concentrations, E. coli
[17] = Silver 1.0 μM, 3rd of four biocide concentrations, E. coli
[18] = Silver 1.0 μM, 4th of four biocide concentrations, E. coli
[19] = Silver 5.0 μM, 1st of four biocide concentrations, E. coli
[20] = Silver 5.0 μM, 3rd of four biocide concentrations, E. coli
[21] = Silver 5.0 μM, 4th of four biocide concentrations, E. coli
[22] = Gold 5 μM, biocide concentration 3 of 4, E. coli
[23] = Gold 25 μM, biocide concentration 3 of 4, E. coli
[24] = Gold 25 μM, biocide concentration 4 of 4, E. coli

Compound | CDI (coefficient of drug interaction), copper mixed with biocide [1] | CDI (coefficient of drug interaction), copper mixed with biocide [2] | CDI (coefficient of drug interaction), copper mixed with biocide [3] | CDI (coefficient of drug interaction), copper mixed with biocide [4] | CDI (coefficient of drug interaction), copper mixed with biocide [5] | CDI (coefficient of drug interaction), copper mixed with biocide [6] | CDI (coefficient of drug interaction), copper mixed with biocide [7] | CDI (coefficient of drug interaction), copper mixed with biocide [8] | CDI (coefficient of drug interaction), copper mixed with biocide [9] | CDI (coefficient of drug interaction), copper mixed with biocide [10] | CDI (coefficient of drug interaction), silver + biocide [11] | CDI (coefficient of drug interaction), silver + biocide [12] | CDI (coefficient of drug interaction), silver + biocide [13] | CDI (coefficient of drug interaction), silver + biocide [14] | CDI (coefficient of drug interaction), silver + biocide [15] | CDI (coefficient of drug interaction), silver + biocide [16] | CDI (coefficient of drug interaction), silver + biocide [17] | CDI (coefficient of drug interaction), silver + biocide [18] | CDI (coefficient of drug interaction), silver + biocide [19] | CDI (coefficient of drug interaction), silver + biocide [21] | further results
CCCCCCCCCCCC[N+](C)(C)C.[Br-] [Dodecyltrimethyl NH4^+ Br^−] | 1.20 | 1.51 | 1.02 | 1.04 | Tox | Tox | 0.77 | 0.73 | 1.63 | Tox | 0.63 | 0.91 | Tox | Tox | 1.00 | 1.04 | Tox | Tox | 0.59 | Tox | CDI (coefficient of drug interaction), copper mixed with biocide (1st of 3 copper concentrations (value not shown), 4th of four biocide concentrations): Tox; CDI (coefficient of drug interaction) (Gold section of Table 5, first of three gold concentrations (μM, value not given), biocide concentration 1 of 4): 0.96; CDI (coefficient of drug interaction) (Gold section of Table 5, first of three gold concentrations (μM, value not given), biocide concentration 2 of 4): 1.00; CDI (coefficient of drug interaction) (Gold section of Table 5, first of three gold concentrations (μM, value not given), biocide concentration 3 of 4): 0.95; CDI (coefficient of drug interaction) (Gold section of Table 5, first of three gold concentrations (μM, value not given), biocide concentration 4 of 4): Tox; CDI (coefficient of drug interaction) (Gold section of Table 5, second of three gold concentrations (μM, value not given), biocide concentration 1 of 4): 0.96; CDI (coefficient of drug interaction) (Gold section of Table 5, second of three gold concentrations (μM, value not given), biocide concentration 2 of 4): 0.94; CDI (coefficient of drug interaction) (Gold section of Table 5, second of three gold concentrations (μM, value not given), biocide concentration 3 of 4): 1.11; CDI (coefficient of drug interaction) (Gold section of Table 5, second of three gold concentrations (μM, value not given), biocide concentration 4 of 4): Tox; CDI (coefficient of drug interaction) (Gold section of Table 5, third of three gold concentrations (μM, value not given), biocide concentration 1 of 4): 1.02; CDI (coefficient of drug interaction) (Gold section of Table 5, third of three gold concentrations (μM, value not given), biocide concentration 2 of 4): 1.14; CDI (coefficient of drug interaction) (Gold section of Table 5, third of three gold concentrations (μM, value not given), biocide concentration 3 of 4): 1.05; CDI (coefficient of drug interaction) (Gold section of Table 5, third of three gold concentrations (μM, value not given), biocide concentration 4 of 4): Tox; CDI (coefficient of drug interaction), silver + biocide (Silver 5.0 μM, 2nd of four biocide concentrations, E. coli): 0.47; CDI (coefficient of drug interaction), silver + biocide [20]: Tox
acriflavine | 1.00 | 0.95 | 0.88 | 0.91 | 0.95 | – | 0.89 | 0.82 | 0.81 | 0.78 | 0.99 | 1.03 | 0.86 | 0.73 | 0.97 | 0.95 | 0.87 | 0.59 | 0.96 | 0.24 | CDI (coefficient of drug interaction), copper mixed with biocide (1st of 3 copper concentrations (value not shown), 2nd of four biocide concentrations): 1.03; CDI (coefficient of drug interaction) (Gold 5 μM, biocide concentration 1 of 4, E. coli): 0.92; CDI (coefficient of drug interaction) (Gold 5 μM, biocide concentration 2 of 4, E. coli): 0.94; CDI (coefficient of drug interaction) [22]: 0.94; CDI (coefficient of drug interaction) (Gold 25 μM, biocide concentration 1 of 4, E. coli): 0.96; CDI (coefficient of drug interaction) [23]: 0.96; CDI (coefficient of drug interaction) [24]: 0.87; CDI (coefficient of drug interaction) (Gold 50 μM, biocide concentration 1 of 4, E. coli): 0.86; CDI (coefficient of drug interaction) (Gold 50 μM, biocide concentration 2 of 4, E. coli): 1.00; CDI (coefficient of drug interaction) (Gold 50 μM, biocide concentration 3 of 4, E. coli): 0.96; CDI (coefficient of drug interaction) (Gold 50 μM, biocide concentration 4 of 4, E. coli): 0.84; CDI (coefficient of drug interaction), silver + biocide [20]: 0.54
CCN(CC)C(=S)SSC(=S)N(CC)CC [disulfiram] | – | – | – | – | – | Tox | – | – | – | – | – | – | – | Tox | – | – | – | Tox | – | Tox | CDI (coefficient of drug interaction) [22]: Tox; CDI (coefficient of drug interaction) (Gold 5 μM, biocide concentration 4 of 4, E. coli): Tox; CDI (coefficient of drug interaction) [23]: Tox; CDI (coefficient of drug interaction) [24]: Tox; CDI (coefficient of drug interaction) ([…], biocide concentration 3 of 4, E. coli): Tox; CDI (coefficient of drug interaction) ([…], biocide concentration 4 of 4, E. coli): Tox
